Drawing on patent US20250171431A1, “HETEROCYCLIC INHIBITORS OF IGF-1R FOR TREATMENT OF DISEASE” (HORIZON THERAPEUTICS IRELAND DAC, priority 2023, published 2025), this text covers IC50 for 27 compounds.

Structures are written as SMILES.

One experiment addresses T1, IGF-1R (Homo sapiens (Human), UniProt P08069). Put plainly: Example B-1: IGF-1R Assay (PC3 cells, IGF1 stimulation, AlphaLISA). Particulars: 200 ng/mL IGF1 stimulation, read-out: Biological Activity against IGF-1R IC50. Format: cell-based. A digest of the protocol:
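PC3 cells were serum-starved 2 h, treated with serially diluted compounds for 2 h, then stimulated with IGF1 (200 ng/mL final) for 30 min. Lysates were read by AlphaLISA; % inhibition was calculated relative to vehicle and EC80 controls, with IC50 values binned into ranges.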
For orientation: Bead proximity is the source of the signal in Alpha formats.
Target sequence in this assay (P08069 31-1367): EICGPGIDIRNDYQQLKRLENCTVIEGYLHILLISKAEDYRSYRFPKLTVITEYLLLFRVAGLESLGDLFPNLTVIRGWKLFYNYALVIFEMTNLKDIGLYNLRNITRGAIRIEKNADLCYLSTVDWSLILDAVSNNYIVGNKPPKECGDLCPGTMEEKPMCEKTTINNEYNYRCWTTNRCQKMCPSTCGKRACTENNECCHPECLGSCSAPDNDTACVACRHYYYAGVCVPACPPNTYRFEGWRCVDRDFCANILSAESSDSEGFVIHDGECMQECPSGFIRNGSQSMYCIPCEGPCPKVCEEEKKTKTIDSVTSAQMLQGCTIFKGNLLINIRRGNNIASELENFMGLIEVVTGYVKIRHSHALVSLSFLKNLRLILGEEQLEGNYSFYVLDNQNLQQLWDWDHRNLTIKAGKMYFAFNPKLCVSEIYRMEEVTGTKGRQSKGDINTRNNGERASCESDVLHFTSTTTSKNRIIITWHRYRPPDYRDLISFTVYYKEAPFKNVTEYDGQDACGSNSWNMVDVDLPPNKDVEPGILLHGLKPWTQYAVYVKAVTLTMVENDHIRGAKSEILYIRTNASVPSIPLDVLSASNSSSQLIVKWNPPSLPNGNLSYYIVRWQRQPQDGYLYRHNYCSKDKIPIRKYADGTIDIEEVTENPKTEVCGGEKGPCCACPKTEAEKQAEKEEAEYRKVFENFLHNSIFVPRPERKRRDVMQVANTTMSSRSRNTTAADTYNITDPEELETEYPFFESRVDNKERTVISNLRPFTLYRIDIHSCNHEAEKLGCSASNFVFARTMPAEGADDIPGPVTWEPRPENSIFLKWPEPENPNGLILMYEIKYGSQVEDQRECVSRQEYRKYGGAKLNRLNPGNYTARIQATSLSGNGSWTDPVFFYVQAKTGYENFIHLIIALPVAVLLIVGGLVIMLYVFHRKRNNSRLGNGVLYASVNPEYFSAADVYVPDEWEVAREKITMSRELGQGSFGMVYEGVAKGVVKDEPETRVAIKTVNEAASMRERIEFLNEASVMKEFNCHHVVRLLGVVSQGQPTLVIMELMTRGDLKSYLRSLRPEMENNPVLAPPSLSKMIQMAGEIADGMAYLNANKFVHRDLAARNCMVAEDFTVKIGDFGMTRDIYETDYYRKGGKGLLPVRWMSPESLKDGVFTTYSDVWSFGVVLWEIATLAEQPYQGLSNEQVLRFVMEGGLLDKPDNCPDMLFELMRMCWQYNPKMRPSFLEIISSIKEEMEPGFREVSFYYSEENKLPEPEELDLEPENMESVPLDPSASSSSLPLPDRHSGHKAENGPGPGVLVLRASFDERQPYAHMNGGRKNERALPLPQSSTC
Consider `COc1cc(Nc2nccc(Nc3cnc4cc(F)c(F)cc4c3)n2)c(Cl)cc1O[C@H]1C[C@@H](N(C)C)C1` [Compound 153, N2-(2-chloro-4-((1s,3s)-3-(dimethylamino)cyclobutoxy)-5-methoxyphenyl)-N4-(6,7-difluoroquinolin-3-yl)pyrimidine-2,4-diamine], for which the 50% inhibitory concentration (IC50) is not above 500 nM.

Turning to `COc1cc(Nc2nccc(Nc3cnc4c(c3)CC[C@@H](C)C4)n2)ccc1OCCCN1CCCCC1` [Compound 71, 4-[(R)-7-methyl-5,6,7,8-tetrahydro-3-quinolylamino]-2-[3-methoxy-4-(3-piperidinopropoxy)phenylamino] pyrimidine], the half-maximal inhibitory concentration (IC50) was not above 500 nM. Regarding `COc1cc(Nc2nccc(Nc3cc4ccccc4nc3C)n2)ccc1OCCCN1CCCCC1` [Compound 424, 2-[3-methoxy-4-(3-piperidinopropoxy)phenylamino]-4-(2-methyl-3-quinolylamino)pyrimidine], the IC50 lay in the range of 500 to 2000 nM. Still for that read-out and setting: in the case of `COc1cc(Nc2nccc(Nc3cnc4cccc(Cl)c4c3)n2)ccc1OCCCN1CCCCC1` [Compound 422, 4-(5-chloro-3-quinolylamino)-2-[3-methoxy-4-(3-piperidinopropoxy)phenylamino]pyrimidine] it was not above 500 nM; in that of `COc1cc(Nc2nccc(Nc3cnc4cc(F)c(F)cc4c3)n2)cnc1N1CCN(CC(F)(F)F)CC1` [Compound 474, 4-(6,7-difluoro-3-quinolylamino)-2-{5-methoxy-6-[4-(2,2,2-trifluoroethyl)-1-piperazinyl]-3-pyridylamino}pyrimidine], 500 to 2000 nM. Same read-out and setting: in the case of `COc1cc(Nc2ncc(F)c(Nc3cnc4ccc(Cl)cc4c3)n2)ccc1O[C@H]1C[C@@H](N(C)C)C1` [Compound 210, N4-(6-chloroquinolin-3-yl)-N2-(4-((1s,3s)-3-(dimethylamino)cyclobutoxy)-3-methoxyphenyl)-5-fluoropyrimidine-2,4-diamine] it was not above 500 nM.

With `COc1cc(Nc2nccc(Nc3ccc4c(c3)CCCN4C)n2)ccc1OCCCN1CCCCC1` [Compound 451, 2-[3-methoxy-4-(3-piperidinopropoxy)phenylamino]-4-(1-methyl-1,2,3,4-tetrahydro-6-quinolylamino) pyrimidine], the IC50 was not above 500 nM. Take `COc1cc(Nc2nccc(Nc3cnc4cc(N)ccc4c3)n2)ccc1O[C@H]1C[C@@H](N(C)C)C1` [Compound 12, 4-(7-amino-3-quinolylamino)-2-{3-methoxy-4-[(1s,3s)-3-(dimethylamino)cyclobutoxy]phenylamino}pyrimidine]: the IC50 was not above 500 nM. On the same count and under the same terms, next, `COc1cc(N2CCN(CC#N)CC2)ncc1Nc1nccc(Nc2cc3cccc(F)c3[nH]c2=O)n1` [Compound 226, (4-{5-[4-(8-fluoro-2-oxo-1,2-dihydro-3-quinolylamino)-2-pyrimidinylamino]-4-methoxy-2-pyridyl}-1-piperazinyl)acetonitrile]: not above 500 nM; `COc1cc(Nc2nccc(Nc3cnc4[nH]ccc4c3)n2)ccc1O[C@H]1C[C@@H](N(C)C)C1` [Compound 301, 4-(1H-1,7-diazainden-5-ylamino)-2-{3-methoxy-4-[(1s,3s)-3-(dimethylamino)cyclobutoxy]phenylamino}pyrimidine]: not above 500 nM; `COc1cc(Nc2nccc(Nc3cnc4cc(F)c(F)cc4c3)n2)cnc1N1CCN(C)C(C)(C)C1` [Compound 484, 4-(6,7-difluoro-3-quinolylamino)-2-[6-(3,3-dimethyl-4-methyl-1-piperazinyl)-5-methoxy-3-pyridylamino]pyrimidine]: not above 500 nM.

Take `COc1cc(Nc2nccc(Nc3cnc4ccc(Cl)cc4c3)n2)cnc1N1CCN(C)C(C)(C)C1` [Compound 480, 4-(6-chloro-3-quinolylamino)-2-[6-(3,3-dimethyl-4-methyl-1-piperazinyl)-5-methoxy-3-pyridylamino] pyrimidine]: the IC50 was not above 500 nM. Still for that read-out and setting: in the case of `COc1cc(Nc2nccc(Nc3cc4cccc(F)c4[nH]c3=O)n2)cnc1N1CCN(C2COC2)CC1` [Compound 237, 8-fluoro-3-(2-{5-methoxy-6-[4-(3-oxetanyl)-1-piperazinyl]-3-pyridylamino}-4-pyrimidinylamino)-1,2-dihydro-2-quinolinone] it was not above 500 nM; in that of `COc1cc(Nc2nccc(Nc3cnc4c(c3)C3CCC4C3)n2)ccc1OCCCN1CCCCC1` (stereo not shown) [Compound 56, 4-(3-azatricyclo[6.2.1.0^2,7]undeca-2,4,6-trien-5-ylamino)-2-[3-methoxy-4-(3-piperidinopropoxy)phenylamino] pyrimidine], not above 500 nM; in that of `COc1cc(Nc2nccc(Nc3cnc4cc(Cl)ccc4c3)n2)ccc1O[C@H]1C[C@@H](N(C)C)C1` [Compound 342, 4-(7-chloro-3-quinolylamino)-2-{3-methoxy-4-[(1s,3s)-3-(dimethylamino)cyclobutoxy]phenylamino}pyrimidine], not above 500 nM. Still for that read-out and setting: in the case of `COc1cc(Nc2ncc(F)c(Nc3cc4cccc(F)c4[nH]c3=O)n2)ccc1O[C@H]1C[C@@H](N(C)C)C1` [Compound 242, 8-fluoro-3-(5-fluoro-2-{3-methoxy-4-[(1s,3s)-3-(dimethylamino)cyclobutoxy]phenyl-amino}-4-pyrimidinylamino)-1,2-dihydro-2-quinolinone] it was 2000 to 10000 nM; in that of `COc1cc(Nc2nccc(Nc3cnc4cc(F)c(F)cc4c3)n2)cnc1OC1CCNCC1` [Compound 89, N4-(6,7-difluoroquinolin-3-yl)-N2-(5-methoxy-6-(piperidin-4-yloxy)pyridin-3-yl)pyrimidine-2,4-diamine], 500 to 2000 nM; in that of `CN(C)[C@H]1C[C@H](Oc2ccc(Nc3nccc(Nc4cnc5ccccc5c4)n3)cc2Br)C1` [Compound 34, 2-{3-bromo-4-[(1r,3r)-3-(dimethylamino)cyclobutoxy]phenylamino}-4-(3-quinolylamino)pyrimidine], not above 500 nM. Same read-out and setting: next, `COc1cc(Nc2nccc(Nc3cc4ccc(F)c(F)c4[nH]c3=O)n2)ccc1O[C@H]1C[C@@H](N(C)C)C1` [Compound 117, 7,8-difluoro-3-(2-{3-methoxy-4-[(1s,3s)-3-(dimethylamino)cyclobutoxy]phenyl-amino}-4-pyrimidinylamino)-1,2-dihydro-2-quinolinone]: not above 500 nM.

Consider `COc1cc(N2CCN(C3COC3)CC2)ncc1Nc1nccc(Nc2cc3cccc(F)c3[nH]c2=O)n1` [Compound 225, 8-fluoro-3-(2-{4-methoxy-6-[4-(3-oxetanyl)-1-piperazinyl]-3-pyridylamino}-4-pyrimidinylamino)-1,2-dihydro-2-quinolinone], for which the IC50 was not above 500 nM. For the compound `COC1CCc2cc(Nc3ccnc(Nc4ccc(OCCCN5CCOCC5)cc4)n3)cnc2C1` (stereo not shown) [Compound 66, 4-(7-methoxy-5,6,7,8-tetrahydro-3-quinolylamino)-2-[p-(3-morpholinopropoxy)phenylamino] pyrimidine], the IC50 was 500 to 2000 nM.

`O=S1(=O)CCN(CCCOc2ccc(Nc3nccc(Nc4cnc5ccc(Br)cc5c4)n3)cc2)CC1` [Compound 206, 4-(3-{p-[4-(6-bromo-3-quinolylamino)-2-pyrimidinylamino]phenoxy}propyl)-1λ^6,4-thiazinane-1,1-dione]: the IC50 was not above 500 nM. As for `c1ccc2ncc(Nc3ccnc(Nc4ccc(O[C@H]5C[C@@H](N6CCOCC6)C5)cc4)n3)cc2c1` [Compound 28, 4-(3-quinolylamino)-2-{p-[(1s,3s)-3-morpholinocyclobutoxy]phenylamino}pyrimidine], the IC50 was not above 500 nM. On the same count and under the same terms, in the case of `CN(C)[C@H]1C[C@@H](Oc2ccc(Nc3nccc(Nc4cnc5c(c4)OCCO5)n3)cc2C#N)C1` [Compound 43, 5-[4-(2,3-dihydro-1,4-dioxa-5-aza-7-naphthylamino)-2-pyrimidinylamino]-2-[(1s,3s)-3-(dimethylamino)cyclobutoxy] benzonitrile] it was not above 500 nM; in that of `COc1cc(Nc2nccc(Nc3cc4ccc(F)cc4[nH]c3=O)n2)ccc1O[C@H]1C[C@@H](N(C)C)C1` [Compound 122, 7-fluoro-3-(2-{3-methoxy-4-[(1s,3s)-3-(dimethylamino)cyclobutoxy]phenyl-amino}-4-pyrimidinylamino)-1,2-dihydro-2-quinolinone], not above 500 nM; in that of `COc1cc(Nc2nccc(Nc3cc4cccc(F)c4[nH]c3=O)n2)cnc1N1CC2(COC2)C1` [Compound 234, 8-fluoro-3-(2-{5-methoxy-6-(2-oxa-6-aza-6-spiro[3.3]heptyl)-3-pyridylamino}-4-pyrimidinylamino)-1,2-dihydro-2-quinolinone], not above 500 nM.

A further experiment deals with T1, IGF-1R. Put plainly: Example B-2: IGF-1R Assay (PathHunter cell lines, EC80 agonist challenge). Format: cell-based. The settings on record: read-out: IC50 (Biological Activity against IGF-1R). On the procedure: PathHunter cell lines were expanded from freezer stocks according to standard procedures. Cells were seeded in a total volume of 20 μL into white walled, 384-well microplates and incubated for the appropriate time prior to testing.
Cells are pre-incubated with compound followed by EC80 agonist challenge as follows: • 1. Intermediate dilution of sample stocks was performed to generate 5× sample in assay buffer. • 2. 5 μL of 5× sample was added to cells and incubated at 37° C. for 60 minutes. Vehicle concentration was 1%. • 3. 5 μL of 6×EC80 agonist in assay buffer was added to the cells and incubated at room temperature for 3 hours.
Assay signal was generated through a single addition of 12.5 or 15 μL (50% v/v) of PathHunter Detection reagent cocktail for agonist and antagonist assays respectively, followed by a one hour incubation at room temperature. Microplates were read following signal generation with a PerkinElmer Envision™ instrument for chemilumine-scent signal detection.
Compound activity was analyzed using CBIS data analysis suite (ChemInnovation, CA). Percentage inhibition was calculated using the following formula: % Inhibition=100%×(1−(mean RLU of test sample−mean RLU of vehicle control)/(mean RLU of EC80 control−mean RLU of vehicle control)). The activity for representative examples of the invention is shown in the following table, wherein A: IC50≤500 nM; B: 500 nM<IC50≤2 μM; C: […]≤10 μM; D: IC50>[…].
Target sequence in this assay (P08069 31-1367, species assumed): as the sequence (P08069 31-1367) above
Consider `COc1cc(Nc2nccc(Nc3cnc4cc(F)c(F)cc4c3)n2)c(Cl)cc1O[C@H]1C[C@@H](N(C)C)C1` [Compound 153, N2-(2-chloro-4-((1s,3s)-3-(dimethylamino)cyclobutoxy)-5-methoxyphenyl)-N4-(6,7-difluoroquinolin-3-yl)pyrimidine-2,4-diamine], for which the 50% inhibitory concentration (IC50) is not above 500 nM. On the same count and under the same terms, next, `COc1cc(Nc2nccc(Nc3cc4ccccc4nc3C(N)=O)n2)ccc1O[C@H]1C[C@@H](N(C)C)C1` [Compound 297, 3-(2-{3-methoxy-4-[(1s,3s)-3-(dimethylamino)cyclobutoxy]phenylamino}-4-pyrimidinylamino)-2-quinolinecarboxamide]: 500 to 2000 nM.

By IC50 is commonly meant the concentration that gives 50% inhibition.
